Results from patent US6217866A, “Monoclonal antibodies specific to human epidermal growth factor receptor and therapeutic methods employing same” (Rhone-Poulenc Rorer International (Holdings), Inc., priority 1995, dated 2001).

Key:
[1] = test system: KB cells; experiment: colony inhibition assay of KB cells; format: cell-based, human
Procedure: KB cells were seeded in petri dishes (50×15 mm^2, NUNC) at a concentration of 2×10^2 cells per dish. […] On the sixth day cultures were fed with fresh medium containing the above ingredients. On the 15th day the cultures were washed with PBS, fixed with 4% v/v formaldehyde in PBS for 15 min. and stained with hematoxylin. Number of formed colonies (25 cells) was then determined.

[2] = test system: EGF receptors exposed on KB cells; experiment: competitive radioimmunoassay with 125I 108 monoclonal antibody on KB cells; format: binding, human
Procedure: The cells were then washed, solubilized in 0.5N NaOH and their radioactivity was determined in a counter (Kontron, Switzerland). Non-specific binding was determined by the addition of 100-fold excess of unlabelled monoclonal antibody.

Substance: epidermal growth factor [EGF]
- size of KB cell colonies ([1]; EGF): increase in the size of KB cell colonies
- number of colonies compared to cells incubated in absence of growth factor ([1]; EGF 160 nM, 15 days after seeding): 150%
- maximal level of competition with binding of the antibody to the receptor [2]: about 70%
